Our source for the GI50 and TGI values is PubChem BioAssay (NCI).

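Protocol summary: plate cells (96-well), add compound at 5 concentrations, incubate 48 h, interpolate endpoints linearly. GI50 = concentration required for 50% inhibition of growth. The concentration for full growth arrest is given as TGI.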

Among the test systems are A549 NSCLC; CCRF-CEM leukemia; HOP-92 NSCLC; HS 578T breast; MOLT-4 leukemia; PC-3 prostate; SN12C renal; T-47D breast; UACC-257 melanoma; UACC-62 melanoma.
Holding throughout (assay): NCI tumour cell line growth inhibition, 48 h

Regarding `NNC(=S)N/N=C/c1ccccn1`, the GI50 was 3.14 µM in the assay on A549 NSCLC; 2.05 µM in the assay with CCRF-CEM leukemia; 0.887 µM with HOP-92 NSCLC; 3.86 µM in the assay with HS 578T breast; 3.34 µM in the assay with MOLT-4 leukemia; 5.62 µM in the assay on PC-3 prostate. Moreover, the GI50 in the assay on SN12C renal is 2.61 µM; with T-47D breast it was 2.44 µM; with UACC-257 melanoma it was 2.7 µM; in the assay with UACC-62 melanoma, 2.03 µM. Moreover, the TGI in the assay on A549 NSCLC was more than 100 µM; in the assay with CCRF-CEM leukemia it was more than 100 µM; with HOP-92 NSCLC, 8.2 µM; in the assay with HS 578T breast it was more than 100 µM; with MOLT-4 leukemia it was more than 100 µM; in the assay with PC-3 prostate, more than 100 µM. The TGI was more than 100 µM in the assay with SN12C renal, more than 100 µM in the assay with T-47D breast, 26.6 µM with UACC-257 melanoma and 14 µM with UACC-62 melanoma.
For the molecule `CCOC(=O)Nc1nc(-c2ccccc2)c(C)s1`, the TGI with A549 NSCLC was more than 100 µM; in the assay with CCRF-CEM leukemia, more than 100 µM; in the assay on HOP-92 NSCLC, 90.5 µM; in the assay on HS 578T breast, more than 100 µM; with MOLT-4 leukemia it was 45.5 µM; in the assay with PC-3 prostate, more than 100 µM. Moreover, the TGI with SN12C renal, with T-47D breast, in the assay with UACC-257 melanoma and in the assay with UACC-62 melanoma was more than 100 µM throughout.
In the case of `COc1cc2c3c(n(CCCNC(C)(C)CO)c(=O)c2cc1OC)-c1cc2c(cc1C3=O)OCO2`, the GI50 in the assay on A549 NSCLC is 1.5 µM; with HOP-92 NSCLC, more than 25.9 µM; in the assay on HS 578T breast, 24.5 µM; in the assay with PC-3 prostate it was 2.75 µM; in the assay with SN12C renal, 0.157 µM; with T-47D breast, 3.47 µM. Further, the GI50 with UACC-257 melanoma was 19.1 µM; in the assay with UACC-62 melanoma it was 0.198 µM. The TGI is 23.9 µM in the assay on A549 NSCLC; 1.58 µM with CCRF-CEM leukemia; more than 53.1 µM with HOP-92 NSCLC; 80.7 µM with HS 578T breast; 0.11 µM in the assay with MOLT-4 leukemia; 16.3 µM with PC-3 prostate. Besides, the TGI in the assay on SN12C renal stood at 2.65 µM; with T-47D breast it was 47.6 µM; with UACC-257 melanoma it was 49.9 µM; with UACC-62 melanoma it was 5.23 µM.
As for `CCOC(=O)Cc1csc(Nc2nc(O)c(C3=c4ccccc4=NC3=O)s2)n1`, the GI50 is 32.4 µM in the assay with A549 NSCLC; 21.1 µM with CCRF-CEM leukemia; 22.2 µM in the assay with HOP-92 NSCLC; 47 µM in the assay on HS 578T breast; 36.7 µM in the assay on MOLT-4 leukemia; 30.8 µM with PC-3 prostate. Besides, the GI50 with SN12C renal is 28 µM; in the assay on T-47D breast, 54.4 µM; in the assay with UACC-257 melanoma, 76.9 µM; in the assay on UACC-62 melanoma it was 15.7 µM. Besides, the TGI was more than 100 µM in the assay with A549 NSCLC; 50.8 µM in the assay with CCRF-CEM leukemia; 52.3 µM in the assay on HOP-92 NSCLC; more than 100 µM with HS 578T breast; 88.9 µM with MOLT-4 leukemia; more than 100 µM in the assay with PC-3 prostate. The TGI with SN12C renal is 98.2 µM; in the assay with T-47D breast, more than 100 µM; in the assay with UACC-257 melanoma, more than 100 µM; in the assay with UACC-62 melanoma, 34.6 µM.
Regarding `Cc1cccc2c1NC(=O)[C@@H](NC(=O)[C@H](CCC(F)(F)F)[C@H](CCC(F)(F)F)C(N)=O)N=C2c1cccc(F)c1`, the GI50 was 36.6 µM with A549 NSCLC; more than 100 µM in the assay on CCRF-CEM leukemia; 14.4 µM with HOP-92 NSCLC; 20.4 µM in the assay on HS 578T breast; more than 100 µM in the assay with MOLT-4 leukemia; 39.5 µM in the assay on PC-3 prostate. The GI50 in the assay on SN12C renal is 28.4 µM; in the assay with T-47D breast it was 34.5 µM; with UACC-257 melanoma, 48.6 µM; with UACC-62 melanoma, 28.2 µM. The TGI in the assay with A549 NSCLC was more than 100 µM; in the assay on CCRF-CEM leukemia, more than 100 µM; in the assay on HOP-92 NSCLC, 57.1 µM; in the assay on HS 578T breast, 64 µM; in the assay with MOLT-4 leukemia, more than 100 µM; in the assay with PC-3 prostate it was more than 100 µM. Further, the TGI with SN12C renal, in the assay with T-47D breast, in the assay with UACC-257 melanoma and with UACC-62 melanoma was more than 100 µM in each case.
In the case of `CN1CCN(C(=O)OCc2nc3c(N4CCOCC4)nc(-c4ccccc4)nc3n2C)CC1`, the GI50 is 1.68 µM in the assay on A549 NSCLC; 0.321 µM in the assay with CCRF-CEM leukemia; 0.765 µM in the assay on HOP-92 NSCLC; 1.23 µM with HS 578T breast; 0.526 µM with MOLT-4 leukemia; 1.09 µM in the assay on PC-3 prostate. The GI50 is 0.814 µM with SN12C renal, 1.53 µM with T-47D breast, 1.47 µM in the assay with UACC-257 melanoma and 1.25 µM in the assay with UACC-62 melanoma. In addition, the TGI is 4.13 µM with A549 NSCLC; 1.57 µM in the assay on CCRF-CEM leukemia; 2.24 µM with HOP-92 NSCLC; 3.93 µM in the assay on HS 578T breast; 3.12 µM in the assay on MOLT-4 leukemia; 2.49 µM with PC-3 prostate. Moreover, the TGI in the assay with SN12C renal was 2.12 µM; in the assay on T-47D breast, 4.51 µM; in the assay with UACC-257 melanoma it was 3.17 µM; with UACC-62 melanoma it was 2.52 µM.
For the molecule `CSc1nc(SC)c2c(C)cn(Cc3ccccc3)c2n1`, the TGI with A549 NSCLC, with CCRF-CEM leukemia, in the assay with HOP-92 NSCLC, with HS 578T breast, in the assay on MOLT-4 leukemia and in the assay with PC-3 prostate was more than 100 µM each time. Moreover, the TGI in the assay on SN12C renal, with T-47D breast and in the assay on UACC-62 melanoma was more than 100 µM throughout.
Regarding `Fc1ccc(-c2nn3c(COc4ccccc4Cl)nnc3s2)cc1Oc1ccccc1`, the GI50 is 40.2 µM in the assay on A549 NSCLC; more than 100 µM with CCRF-CEM leukemia; 15.2 µM with HOP-92 NSCLC; 47.6 µM in the assay on HS 578T breast; 22.6 µM in the assay with PC-3 prostate; 20.8 µM in the assay with SN12C renal. Moreover, the GI50 in the assay on T-47D breast is 34.5 µM; in the assay on UACC-257 melanoma, more than 100 µM; in the assay with UACC-62 melanoma, 17.8 µM. The TGI with A549 NSCLC is more than 100 µM; with CCRF-CEM leukemia, more than 100 µM; in the assay with HOP-92 NSCLC, 45.6 µM; in the assay on HS 578T breast, more than 100 µM; in the assay with PC-3 prostate, 73.8 µM; with SN12C renal it was 56.6 µM. Further, the results for the TGI in the assay on T-47D breast, in the assay with UACC-257 melanoma and with UACC-62 melanoma were more than 100 µM, more than 100 µM and 39 µM, respectively.
